Results reported in patent US20260193222A1, “COMPOUND AND USE THEREOF IN TREATMENT OF TREG-RELATED DISEASES” (BENETHERA (SHAOXING) BIOTECHNOLOGY CO., LTD., priority 2022, published 2026).

Experiments:
[1] = O-1602 release of O-1602 derivatives under different pH conditions (HPLC area percentage); type: physicochemical; settings: for completeness of O-1602 release (in words): partial release with degradation into other impurities
Experimental: Example 1: Experimental on O-1602 Releases of O-1602 Derivatives Under Different pH Conditions
• Chromatographic column: shimnex CS C18 5 μm, 4.6*250 mm • Mobile phase A: 0.1% phosphoric acid in water; mobile phase B: acetonitrile (see Table 1)
Buffer solution (pH 1.6): 32.4 ml of 0.2 mol/L hydrochloric acid was accurately measured, diluted with water to 200 ml, and shaken well.
Phosphate buffer (pH 5.0): a certain amount of 0.2 mol/L sodium dihydrogen phosphate solution was taken and the pH value was adjusted by using 0.2 mol/L sodium hydroxide solution to 5.0.
Phosphate buffer (pH 6.8): a certain amount of 0.2 mol/L sodium dihydrogen phosphate solution was taken and the pH value was adjusted by using 0.2 mol/L sodium hydroxide solution to 6.8.
Phosphate buffer (pH 7.2): a certain amount of 0.2 mol/L sodium dihydrogen phosphate solution was taken and the pH value was adjusted by using 0.2 mol/L sodium hydroxide solution to 7.2.
Phosphate buffer (pH 8.0): a certain amount of 0.2 mol/L sodium dihydrogen phosphate solution was taken and the pH value was adjusted by using 0.2 mol/L sodium hydroxide solution to 8.0.
About 1 mg of O-1602 derivative was placed in a 2 mL centrifuge tube and dissolved by adding 1 mL of acetonitrile. Then 1 mL of buffer solution was added and shaken well. The obtained solution was incubated at 37° C., and sampled for determination respectively after for 2 hours and 4 hours. (The releases of O-1602 were respectively investigated at pH 1.6, pH 5.0, pH 6.8, pH 7.2, and pH 8.0)
Calculations: the content of O-1602 was calculated by area percentage.

[2] = test system: CS7BL/6 mice with TNBS-induced acute enteritis; experiment: 2,4,6-trinitrobenzene sulfonic acid (TNBS)-induced acute enteritis in mice; type: in vivo; settings: for weight loss in model animals / disease activity index (DAI) / damage to colon tissue / length of colon: 1 mg/kg, once daily gavage; for weight loss in model animals: day 0 to day 4, FIG. 2; for disease activity index (DAI): day 0 to day 4, FIG. 3; for damage to colon tissue: dissection on day 5, FIG. 5; for length of colon: dissection on day 5, FIGS. 4 and 5; for efficacy compared with tofacitinib: derivative 1 mg/kg versus positive control tofacitinib
Experimental: CS7BL/6 mice, male, and female, 6 to 10 weeks old were used. On day-7 of the experiment, the experimental animals were weighed, and the mice were randomly divided into cages according to their body weights. The animals were allowed to adapt to the environment of the animal room. The animal room was maintained at a constant temperature (23° C.±3° C.) and constant humidity (50% relative humidity). Animals are fed standard laboratory food and have free access to drinking water. On day 0, mice were induced for TNBS colitis by intrarectal injection. The dosage of TNBS was 125 mg/kg. The solvent was 30% alcohol. Each mouse received a volume of 100 μl. After the rectal injection, the mice were inverted for 1 minute to prevent leakage of the drug solution.
The solid O-1602 derivative was dissolved in DMSO at a concentration of 2 mg/ml. The above solution was diluted to 0.1 mg/ml using PBS. TNBS enteritis mice received once daily gavage in a volume of 200 μl and were dosed daily at 11:00 a. m. The dosage of the O-1602 derivative was 1 mg/kg. The treatment schedule for the O-1602 derivative was from day 0 to day 4 of the TNBS. The mice in the control group were administered with an equal volume of solvent by gavage. At the same time, the anti-colitis drug JAK inhibitor tofacitinib was used as a positive control. The experimental results of O-1602 derivatives in this model experiment were compared. The O-1602 derivatives were dissolved in the above-mentioned way; the concentration was 1.5 mg/mL; the volume of intragastric administration was 200 μL; and the dosage was 15 mg/kg.
Mice were observed daily for body weight and anal bleeding, and the daily disease activity index (DAI) was calculated and recorded.
The experiment was terminated on day 5 of TNBS. Mice were euthanized by cervical amputation under isoflurane anesthesia. The mice were dissected and the whole colon was obtained. The length of the colon was measured and photographed.

[3] = pH 1.6~8.0, 37° C., 2 hours and 4 hours

With `C=C(C)[C@@H]1CCC(C)=C[C@H]1c1c(C)cc(OC(=O)OCCN(CC)CC)cc1OC(=O)OCCN(CC)CC` [Compound 1] the Principal component % ([1]; 0 h) was 97.185%, the Principal component % ([1]; Buffer (pH 1.6), 37° C., 2 h) was 96.906% and the Principal component % ([1]; Buffer (pH 1.6), 37° C., 4 h) was 94.115%. For the same compound, the Principal component % ([1]; Buffer (pH 5.0), 37° C., 2 h) was 78.030%, the O-1602% ([1]; Buffer (pH 5.0), 37° C., 4 h) was 0.457% and the Principal component % ([1]; Buffer (pH 5.0), 37° C., 4 h) was 24.651%. For the same compound, the O-1602% ([1]; Buffer (pH 6.8), 37° C., 2 h) was 9.801%, the O-1602% ([1]; Buffer (pH 6.8), 37° C., 4 h) was 20.813% and the O-1602% ([1]; Buffer (pH 7.2), 37° C., 2 h) was 6.354%. The O-1602% ([1]; Buffer (pH 7.2), 37° C., 4 h) was 20.172%, the O-1602% ([1]; Buffer (pH 8.0), 37° C., 2 h) was 11.455% and the O-1602% ([1]; Buffer (pH 8.0), 37° C., 4 h) was 33.963%. For the same compound, the “release amount of O-1602 (in words)” value [1, 3] was “relatively high”, the “completeness of O-1602 release (in words)” value ([1]; pH 1.6~8.0, 37° C.) was “only partially released” and the “weight loss in model animals” value [2] was “significantly alleviated”.

With `C=C(C)[C@@H]1CCC(C)=C[C@H]1c1c(C)cc(OC(C)=O)cc1OC(C)=O` [Compound 2] the “release amount of O-1602 (in words)” value [1, 3] was “no O-1602 was released”.

In the case of `C=C(C)[C@@H]1CCC(C)=C[C@H]1c1c(C)cc(OC(=O)NC(C(=O)O)C(C)C)cc1OC(=O)NC(C(=O)O)C(C)C` (stereo partly shown) [Compound 3], the “weight loss in model animals” value [2] is reported as “significantly alleviated”, the “disease activity index (DAI)” value [2] is reported as “significantly alleviated” and the “damage to colon tissue” value [2] is reported as “reduced”. For the same compound, the length of colon [2] was “increased” and the “efficacy compared with tofacitinib” value [2] was “superior efficacy”.

With `C=C(C)[C@@H]1CCC(C)=C[C@H]1c1c(C)cc(OC(=O)NCCCCN)cc1O` [Compound 6] the “release amount of O-1602 (in words)” value [1, 3] was “small amount”, the “weight loss in model animals” value [2] was “significantly alleviated” and the “disease activity index (DAI)” value [2] was “significantly alleviated”. The “damage to colon tissue” value [2] was “reduced”, the length of colon [2] was “increased” and the “efficacy compared with tofacitinib” value [2] was “superior efficacy”.

Compound `C=C(C)[C@@H]1CCC(C)=C[C@H]1c1c(C)cc(OC(=O)C(N)C(C)C)cc1OC(=O)C(N)C(C)C` (stereo partly shown) [Compound 7] has a Principal component % ([1]; 0 h) of 87.691%, a Principal component % ([1]; Buffer (pH 1.6), 37° C., 2 h) of 79.094% and a Principal component % ([1]; Buffer (pH 1.6), 37° C., 4 h) of 81.424%. The O-1602% ([1]; Buffer (pH 5.0), 37° C., 2 h) was 1.088%, the Principal component % ([1]; Buffer (pH 5.0), 37° C., 2 h) was 26.693% and the O-1602% ([1]; Buffer (pH 5.0), 37° C., 4 h) was 3.800%. The Principal component % ([1]; Buffer (pH 5.0), 37° C., 4 h) was 8.307%, the O-1602% ([1]; Buffer (pH 6.8), 37° C., 2 h) was 1.972% and the Principal component % ([1]; Buffer (pH 6.8), 37° C., 2 h) was 3.401%. The O-1602% ([1]; Buffer (pH 6.8), 37° C., 4 h) was 3.518%, the Principal component % ([1]; Buffer (pH 6.8), 37° C., 4 h) was 1.551% and the O-1602% ([1]; Buffer (pH 7.2), 37° C., 2 h) was 29.354%. The O-1602% ([1]; Buffer (pH 7.2), 37° C., 4 h) was 19.343%, the O-1602% ([1]; Buffer (pH 8.0), 37° C., 2 h) was 11.933% and the O-1602% ([1]; Buffer (pH 8.0), 37° C., 4 h) was 43.976%. The “release amount of O-1602 (in words)” value [1, 3] was “relatively high”, the “completeness of O-1602 release (in words)” value ([1]; pH 1.6~8.0, 37° C.) was “only partially released” and the “weight loss in model animals” value [2] was “significantly alleviated”. For the same compound, the “disease activity index (DAI)” value [2] was “significantly alleviated”, the “damage to colon tissue” value [2] was “reduced” and the length of colon [2] was “increased”. The “efficacy compared with tofacitinib” value [2] was “superior efficacy”.

In the case of `C=C(C)[C@@H]1CCC(C)=C[C@H]1c1c(C)cc(OC(=O)N(C)C)cc1OC(=O)N(C)C` [Compound 8], the “release amount of O-1602 (in words)” value [1, 3] is reported as “no O-1602 was released” and the “stability (in words)” value [1, 3] is reported as “good stability”.

In the case of `C=C(C)[C@@H]1CCC(C)=C[C@H]1c1c(C)cc(OC(=O)NCCN2CCN(C)CC2)cc1OC(=O)NCCN1CCN(C)CC1` [Compound 11], the “release amount of O-1602 (in words)” value [1, 3] is reported as “small amount”, the “disease activity index (DAI)” value [2] is reported as “significantly alleviated” and the “damage to colon tissue” value [2] is reported as “reduced”. The length of colon [2] was “increased” and the “efficacy compared with tofacitinib” value [2] was “superior efficacy”.

For `C=C(C)[C@@H]1CCC(C)=C[C@H]1c1c(C)cc(OC(=O)CN(C)C)cc1O` [Compound 13], the “O-1602 release (in words)” value ([1]; acidic buffer solution (pH 1.6), 37° C., 4 hours) was “trace amount” and the “release amount of O-1602 (in words)” value [1, 3] was “small amount”.
